Data reported in ChEMBL document CHEMBL5728698, “Pyrrolo[1,2-b]pyridazine derivatives” (2021).

Molecular target: T1, Interleukin-1 receptor-associated kinase 4 (Homo sapiens, UniProt Q9NWZ3)
T1 sequence (Q9NWZ3 whole entry): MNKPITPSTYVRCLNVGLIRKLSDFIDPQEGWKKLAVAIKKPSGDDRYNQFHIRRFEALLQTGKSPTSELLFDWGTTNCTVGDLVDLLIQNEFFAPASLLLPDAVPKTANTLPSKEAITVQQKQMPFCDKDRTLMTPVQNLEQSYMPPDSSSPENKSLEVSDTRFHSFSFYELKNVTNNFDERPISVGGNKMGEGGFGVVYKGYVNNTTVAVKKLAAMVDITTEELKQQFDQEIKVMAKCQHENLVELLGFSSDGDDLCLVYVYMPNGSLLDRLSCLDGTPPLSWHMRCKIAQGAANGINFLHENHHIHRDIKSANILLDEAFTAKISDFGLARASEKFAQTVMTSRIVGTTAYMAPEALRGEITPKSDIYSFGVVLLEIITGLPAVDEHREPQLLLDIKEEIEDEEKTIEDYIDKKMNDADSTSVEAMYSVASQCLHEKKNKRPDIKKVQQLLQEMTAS
Assay: IRAK4 Biochemical Assay: IRAK4 enzyme (Carna Biosciences, Chuo-ku, Kobe, Japan) activity was measured by detecting phosphorylated peptide substrate formation using an antibody against the phosphorylated peptide substrate. This is a time-resolved fluorescence resonance energy transfer (TR-FRET) immunoassay, based on the STK1 KinEASE Assay (Cisbio, Bedford, Mass.). The assay was designed as a simple two-step, endpoint assay (a 5 μl enzyme reaction followed by 5 μl stop and detect Solution) performed in ProxiPlate-384 Plus plates (Perkin Elmer, Waltham, Mass.). Staurosporine, a non-selective kinase inhibitor was used as a positive control. Compounds diluted in DMSO were spotted into 384 well plates using a Labcyte® Echo 550 Liquid Handling System prior to addition of IRAK4 enzyme and peptide substrate. Reaction solutions were delivered using a Multi-Flo (Bio-Tek Instruments). The enzyme and peptide solution was incubated with compound for 15 minutes at room temp before the reaction was initiated by the addition of ATP. The standard 5 μl reaction mixture contained 500 μM ATP, 2 μM peptide (STK1 Peptide), 0.75 nM of IRAK4 in reaction buffer (50 mM HEPES, pH 7.0, 0.02% NaN3, 0.01% BSA, 0.1 mM Orthovanadate, 5 mM MgCl2, 0.025% NP-40, 1 mM DTT). […]

COC(=O)NC[C@H]1C[C@H](Nc2cc(-c3ccc4cc(C#N)cnn34)ncc2-c2cn([C@H]3CC[C@H](NC(=O)N4CCOCC4)CC3)nn2)C1
IC50: < 1 nM
